How the values were obtained:
HGF induced scattering = details: in vitro; cited from earlier work
[1] = earlier experiments; cited from earlier work
Met = Met (Homo sapiens, UniProt P08581); details: in vitro; cited from earlier work
[2] = tested on: phosphorylation of MAP kinases Erk1 and Erk2; assay: HGF/SF phosphorylation assay (MDCK); assay type: cell-based, canine; details: MDCK cells, HGF/SF stimulation, 5, 10, 20 μM, dose dependant
Experimental: MDCK cells are seeded at 0.15×10E6 cells/ml (1 ml/well) in a 12 well microtiter plate in DMEM/10% FBS and incubated over night at 37° C./5% CO2. Medium is exchanged against DMEM/1% FBS plus 5, 10 or 20 μM (final concentration) compound, and the cells are incubated for 16 h at 37° C./5% CO2. Medium is exchanged against DMEM (without serum) plus 5, 10 or 20 μM compound (final DMSO concentration less than 1%), and the cells are incubated for 2 h at 37° C./5% CO2. Medium is exchanged against DMEM (without serum) plus 5, 10 or 20 μM compound (final DMSO concentration less than 1%) plus 10 ng/ml HGF/SF, and the cells are incubated for 6 h at 37° C./5% CO2. […] Proteins on the blot are analyzed by antibodies against p42/p44 MAP kinase (Erk1/Erk2) (Cell Signaling Technology, Inc., Beverly, USA) and phospho-Erk1/Erk2 (Cell Signaling Technology, Inc., Beverly, USA).
The binding of the antibodies to the MAP kinases on the nitrocellulose was detected by incubation with secondary goat-anti-rabbit-antibodies coupled to horse radish peroxidase (Jackson ImmunoResearch Laboratories, Soham, UK) and subsequent reaction with ECL reagents (Western Lightning™, PerkinElmer Life Sciences, Inc. Boston, USA) and X-ray film exposure (X-OMAT™, Kodak GmbH, Stuttgart, Germany). […]

[3] = tested on: phosphorylation of MAP kinases Erk1 and Erk2; assay: HGF/SF phosphorylation assay (NCI-H661); assay type: cell-based, human; details: NCI-H661 cells (N58S in SHP2/PTPN11), HGF/SF stimulation, dose dependant
Experimental: Typically, human tumor cells (e.g. NCI-H661) were seeded at 0.25×10E6 cells/ml (1 ml/well) in a 6 well microtiter plate in RPMI/10% FBS and incubated over night at 37° C./5% CO2. Medium is exchanged against RPMI/1% FBS plus 5, 10 or 20 μM (final concentration) compound, and the cells were incubated for 20 h at 37° C./5% CO2. Medium was exchanged against RPMI (without serum) plus 5, 10 or 20 μM compound (final DMSO concentration less than 1%), and the cells were incubated for 4 h at 37° C./5% CO2. Medium was exchanged against DMEM (without serum) plus 5, 10 or 20 μM compound (final DMSO concentration less than 1%) plus 10 ng/ml HGF/SF, and the cells were incubated for 4 h at 37° C./5% CO2. […] Proteins on the blot were analyzed by antibodies against p42/p44 MAP kinase (Erk1/Erk2) (Cell Signaling Technology, Inc., Beverly, USA) and phospho-Erk1/Erk2 (Cell Signaling, Technology, Inc., Beverly, USA). The binding of the antibodies to the MAP kinases on the nitrocellulose was detected by incubation with secondary goat-anti-rabbit-antibodies coupled to horse radish peroxidase (Jackson ImmunoResearch Laboratories, Soham, UK) and subsequent reaction with ECL reagents (Western Lightning™, PerkinElmer Life Sciences, Inc. Boston, USA) and X-ray film exposure (X-OMAT™, Kodak GmbH, Stuttgart, Germany).

Met, sequence (P08581 25-1390): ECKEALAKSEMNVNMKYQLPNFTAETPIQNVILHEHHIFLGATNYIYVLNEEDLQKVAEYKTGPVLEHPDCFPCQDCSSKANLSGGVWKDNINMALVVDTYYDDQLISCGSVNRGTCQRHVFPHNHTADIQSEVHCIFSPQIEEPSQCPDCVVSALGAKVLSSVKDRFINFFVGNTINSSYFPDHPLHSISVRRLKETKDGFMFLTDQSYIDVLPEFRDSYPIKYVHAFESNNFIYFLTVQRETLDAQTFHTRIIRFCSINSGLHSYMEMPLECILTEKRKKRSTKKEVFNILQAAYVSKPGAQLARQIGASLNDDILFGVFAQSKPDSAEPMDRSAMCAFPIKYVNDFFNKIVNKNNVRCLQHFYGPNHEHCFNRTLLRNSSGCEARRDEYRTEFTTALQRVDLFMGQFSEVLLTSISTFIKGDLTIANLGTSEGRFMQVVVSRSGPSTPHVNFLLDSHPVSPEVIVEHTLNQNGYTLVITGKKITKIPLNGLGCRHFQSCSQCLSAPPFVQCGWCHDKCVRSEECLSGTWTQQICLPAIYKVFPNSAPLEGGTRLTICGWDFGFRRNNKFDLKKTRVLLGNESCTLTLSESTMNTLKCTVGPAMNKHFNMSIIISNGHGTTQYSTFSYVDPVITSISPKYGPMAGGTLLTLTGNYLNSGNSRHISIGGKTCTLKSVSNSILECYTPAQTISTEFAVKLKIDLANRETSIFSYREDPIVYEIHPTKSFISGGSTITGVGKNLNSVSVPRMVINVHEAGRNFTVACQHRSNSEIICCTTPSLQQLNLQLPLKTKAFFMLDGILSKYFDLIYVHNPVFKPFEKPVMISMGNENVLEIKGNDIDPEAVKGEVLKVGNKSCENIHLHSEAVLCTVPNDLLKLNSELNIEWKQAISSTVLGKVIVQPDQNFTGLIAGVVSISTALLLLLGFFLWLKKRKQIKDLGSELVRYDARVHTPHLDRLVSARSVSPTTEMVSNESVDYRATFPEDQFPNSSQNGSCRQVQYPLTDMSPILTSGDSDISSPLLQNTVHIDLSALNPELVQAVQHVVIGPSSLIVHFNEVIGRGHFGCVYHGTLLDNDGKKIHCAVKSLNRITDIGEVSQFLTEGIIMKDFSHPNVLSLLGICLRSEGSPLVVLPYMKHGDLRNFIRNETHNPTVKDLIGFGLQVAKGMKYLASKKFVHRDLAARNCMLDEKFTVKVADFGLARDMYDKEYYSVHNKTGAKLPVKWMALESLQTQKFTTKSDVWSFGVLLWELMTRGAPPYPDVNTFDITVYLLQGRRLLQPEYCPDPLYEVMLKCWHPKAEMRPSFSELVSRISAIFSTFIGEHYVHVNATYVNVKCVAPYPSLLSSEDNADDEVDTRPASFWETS

SMILES	HGF induced scattering (HGF induced scattering)	antitumor activity in vivo [1]	Met autophosphorylation (Met)	sustained MAP kinase phosphorylation (P-Erk1/Erk1) [2]	sustained MAP kinase phosphorylation [3]
COC(=O)[C@@]1(O)C[C@H]2O[C@]1(C)n1c3ccccc3c3c4c(c5c6ccccc6n2c5c31)C(=O)NC4 [Compound K252a]	inhibits	no antitumor activity	inhibits	–	–
O=C1/C(=N\Nc2ccc(S(=O)(=O)O)cc2)C(c2ccc([N+](=O)[O-])cc2)=NN1c1ccccc1 [II-1, 4-(2-(3-(4-nitrophenyl)-5-oxo-1-phenyl-1,5-dihydro-4H-pyrazol-4-ylidene)hydrazino)-benzenesulfonic acid]	–	–	–	inhibited	inhibited

From patent US7868185B2, “Shp-2 inhibitors and pharmaceutical compositions comprising them” (Max-Delbruck-Centrum fur Molekulare Medizin, priority 2005, dated 2011)
